Entries after “also recorded” stand apart in the source; their conditions may differ.
Key:
[1] = Solubility in methyl cellulose solvent; assay type: physicochemical
Text: Huperzine A was either administered in a soluble form (SOL) or as a suspension (SUS). […] To produce the suspension, huperzine A was ground to a powder using a mortar and pestle, and the powder mixed with methyl cellulose. This mixture was then sonicated to produce a suspension that was subsequently administered to mice in the weight range of 19.0 to 25.5 g. The data are presented as the number of mice showing an effect (N) from the full number of mice (F) tested. […] At four hours post administration, all three mice were protected (i.e., 100% were protected).

[2] = tested on: formalin-induced paw-licking; test: Formalin test (paw licking) in mice; assay type: in vivo
Protocol: The formalin test for antinociceptive activity is described in numerous publications, e.g., Hunskaar, S., O. B. Fasmer, and K. Hole, J. Neurosci. […] The formalin test is accepted as an art recognized model of persistent clinical pain.
Male Swiss Webster NIH mice (20-30 g; Harlan, San Diego, Calif.) were used in the experiments described herein. Food was withdrawn on the day of experiment. Mice were placed in Plexiglass jars for at least 1 hour to accommodate to the environment. Following the accommodation period, mice were weighed and given either a huperzine compound administered intraperitoneal (i.p.) or oral (p.o.), or the appropriate volume of vehicle (10% Tween-80). Fifteen minutes after the i.p. dosing, and 30 minutes after the p.o. dosing mice were injected with formalin (20 μL of 5% formaldehyde solution in saline) into the dorsal surface of the right hind paw. Mice were transferred to the Plexiglass jars and monitored for the amount of time spent licking or biting the injected paw. Periods of licking and biting were recorded in 5 minute intervals for 40 minutes after the formalin injection. All experiments were done in a blinded manner. The early phase (acute) of the formalin response is measured as licking/biting between 0-5 minutes, and the late phase (inflammatory) is measured from 10-40 minutes. Differences between vehicle and drug treated groups are analyzed by one-way analysis of variance (ANOVA). A P value<0.05 is considered significant.
Fifteen minutes after the i.p. dosing, mice were injected with formalin (20 μL of 5% formaldehyde solution in saline) into the dorsal surface of the right hind paw. Periods of licking and biting were recorded in 5 minute intervals for 40 minutes after the formalin injection as shown below in Tables 1 and 2. All experiments were done according to the art-recognized Anticonvulsant Screening Program of the NINDS at the University of Utah.
Duration of paw licking in the tables below is expressed in seconds.

[3] = tested on: mice; test: Toxicity Model (TOX), rotorod / minimal motor impairment, mice i.p.; assay type: in vivo; conditions: for Comment (6 Hz test, 22 mA) / Comment (6 Hz test, 32 mA): 1 h
Text: To investigate the neurotoxicity levels of the huperzine compounds, the Toxicity Model (TOX) using a rotorod is employed. The animals (e.g., mice) were trained to stand on an accelerating rotorod rotating at 10 rev min^−1 with a diameter of 3.2 cm. The trained animal can be given the huperzine compound at various doses and the effect of huperzine on their motor skills can be determined. The dose at which the animals fell off the rotorod is the toxic dose.
The neurotoxicity of huperzine was tested in the rotorod test. The mice were trained to stand on an accelerating rotorod rotating at 10 rev min^−1 with a diameter of 3.2 cm. The trained animals were given the huperzine at various doses and the effect of huperzine on their motor skills was determined. The dose at which the animals fell off the rotorod was the toxic dose.
Huperzine A was either administered in a soluble form (SOL) or as a suspension (SUS). […] To produce the suspension, huperzine A was ground to a powder using a mortar and pestle, and the powder mixed with methyl cellulose. This mixture was then sonicated to produce a suspension that was subsequently administered to mice in the weight range of 19.0 to 25.5 g. The data are presented as the number of mice showing an effect (N) from the full number of mice (F) tested. […] At four hours post administration, all three mice were protected (i.e., 100% were protected). […]
(§1) Minimal toxicity was identified in mice by the rotorod procedure.

[4] = tested on: mice; test: Toxicity / minimal motor impairment after ICV administration (6 Hz screen); assay type: in vivo; conditions: for Toxic (animals toxic over number tested): 0.5 h
Text: Doses listed as pmol/5 microliter injection volume for ICV. TD50 at 0.5 hrs: 36.15 (9.35-121.74) 1.57+/−0.51.
as §1

[5] = tested on: Subcutaneous Metrazol (pentylenetetrazol; SCMET) seizures; test: Subcutaneous Metrazol (SCMET / scPTZ) model, rats, oral; assay type: in vivo
Protocol: Huperzine A was evaluated in the Maximal Electroshock (MES) and Subcutaneous Metrazol (pentylenetetrazol; SCMET) models of generalized tonic-clonic and myoclonic seizures, respectively in mice and rats.
The Subcutaneous Metrazole (SCMET) model is also an art-recognized test for therapeutic agents for epilepsy, and in particular, is useful for investigating petite mal seizures. A Metrazole dose of 85 mg/kg was administered subcutaneously to induce seizures. Huperzine was then administered and the animals observed.
Peak anticonvulsant activity was observed one-hour after p.o. administration of 1 mg/kg.

SMILES: C/C=C1\[C@H]2C=C(C)C[C@]1(N)c1ccc(=O)[nH]c1C2 [Huperzine A]
- solubility in the methyl cellulose solvent ([1]; at concentrations of 0.1-0.3 mg/kg): readily soluble
- solubility in the methyl cellulose solvent ([1]; at higher concentrations (administered as suspension)): not soluble
- Area Under the Curve, % of Control ([2]; 0.5 mg/kg i.p., Acute phase): 2.8%
- Area Under the Curve, % of Control ([2]; 0.5 mg/kg i.p., Inflammatory phase): 0.0%
- inhibition of phase 1 (acute) pain response ([2]; 1 mg/kg i.p.): complete inhibition
- inhibition of phase 2 (inflammatory) pain response ([2]; 1 mg/kg i.p.): complete inhibition
- Area Under the Curve, % of Control ([2]; 1 mg/kg i.p., Acute phase): 0.0%
- Area Under the Curve, % of Control ([2]; 1 mg/kg i.p., Inflammatory phase): 0.0%
- TOX N/F (mice showing an effect / mice tested) ([3]; 0.1 mg/kg i.p., SOL, 4.0 h): 0/4
- Comment (6 Hz test, 22 mA) ([3]; 0.18 mg/kg IP): Minimal motor impairment
- Comment (6 Hz test, 32 mA) ([3]; 0.2 mg/kg IP): Tremors
- Comment (6 Hz test, 32 mA) ([3]; 0.3 mg/kg IP): Tremors; also recorded: Minimal motor impairment
- TOX N/F (mice showing an effect / mice tested) ([3]; 0.3 mg/kg i.p., SOL, 4.0 h): 0/4
- Comment (6 Hz test, 22 mA) ([3]; 0.35 mg/kg IP): Minimal motor impairment
- Comment (6 Hz test, 32 mA) ([3]; 0.42 mg/kg IP): Tremors; also recorded: Minimal motor impairment
- Comment (6 Hz test, 22 mA) ([3]; 0.7 mg/kg IP): Tremors; also recorded: Minimal motor impairment
- Comment (6 Hz test, 32 mA) ([3]; 0.83 mg/kg IP): Tremors; also recorded: Minimal motor impairment
- TOX N/F (mice showing an effect / mice tested) ([3]; 1 mg/kg i.p., SOL, 0.5 h, (T) animals displaying tremors): 4/4 (T)^2
- TOX N/F (mice showing an effect / mice tested) ([3]; 1 mg/kg i.p., SOL, 4.0 h, (T) animals displaying tremors): 2/2 (T)
- TOX N/F (mice showing an effect / mice tested) ([3]; 3 mg/kg i.p., SUS, 0.5 h): 8/8
- TOX N/F (mice showing an effect / mice tested) ([3]; 3 mg/kg i.p., SUS, 4.0 h, (T) animals displaying tremors): 4/4 (T)
- TOX N/F (mice showing an effect / mice tested) ([3]; 10 mg/kg i.p., SUS, 0.5 h): 4/4
- TOX N/F (mice showing an effect / mice tested) ([3]; 10 mg/kg i.p., SUS, 4.0 h, (T) animals displaying tremors): 2/2 (T)
- TOX N/F (mice showing an effect / mice tested) ([3]; 30 mg/kg i.p., SUS, 0.5 h, (D) death of animals): 4/4 (D)^3
- TOX N/F (mice showing an effect / mice tested) ([3]; 100 mg/kg i.p., SUS, 0.5 h, (D) death of animals): 8/8 (D)
- TOX N/F (mice showing an effect / mice tested) ([3]; 300 mg/kg i.p., SUS, 0.5 h, (D) death of animals): 4/4 (D)
- behavioral impairment at anticonvulsant doses ([3]; mice): marked motor impairment
- body temperature [4]: Dose-dependent drop in body temperatures
- Toxic (animals toxic over number tested) ([4]; dose 0.01 (pmol/5 microliter; head mg/kg)): 0/8 Toxic
- Toxic (animals toxic over number tested) ([4]; dose 1 (pmol/5 microliter; head mg/kg)): 0/8 Toxic
- Toxic (animals toxic over number tested) ([4]; dose 10 (pmol/5 microliter; head mg/kg)): 2/8 toxic
- Toxic (animals toxic over number tested) ([4]; dose 100 (pmol/5 microliter; head mg/kg)): 6/8 Toxic
- Toxic (animals toxic over number tested) ([4]; dose 1000 (pmol/5 microliter; head mg/kg)): 4/4 toxic
- TD50 ([4]; 0.5 hrs, (95% interval in brackets)): 36.15 (9.35-121.74) pmol/5 microliter injection volume
- Response comment ([4]; dose 10, 0.25 h): Minimal motor impairment
- Response comment ([4]; dose 10, 0.5 h): Minimal motor impairment
- Response comment ([4]; dose 100, 0.25 h): Minimal motor impairment
- Response comment ([4]; dose 100, 0.5 h): Minimal motor impairment
- Response comment ([4]; dose 100, 1 h): Minimal motor impairment
- time of peak anticonvulsant activity ([5]; after p.o. administration of 1 mg/kg): one-hour
- time of peak activity post administration ([5]; rats, 1 mg/kg oral): between 30 minutes and two hours

Reference: US20110224245A1, “Treatment Of Neurological Disorders Using Huperzine” (President and Fellows of Harvard College, priority 2008, published 2011)
